Measurements taken from EP4763839A1 (Pamplona Therapeutics (Shenzhen) Co., Ltd., priority 2023, dated 2025).

Biological target: T1, IRAK4 (Homo sapiens, UniProt Q9NWZ3)
T1 sequence (Q9NWZ3 1-460): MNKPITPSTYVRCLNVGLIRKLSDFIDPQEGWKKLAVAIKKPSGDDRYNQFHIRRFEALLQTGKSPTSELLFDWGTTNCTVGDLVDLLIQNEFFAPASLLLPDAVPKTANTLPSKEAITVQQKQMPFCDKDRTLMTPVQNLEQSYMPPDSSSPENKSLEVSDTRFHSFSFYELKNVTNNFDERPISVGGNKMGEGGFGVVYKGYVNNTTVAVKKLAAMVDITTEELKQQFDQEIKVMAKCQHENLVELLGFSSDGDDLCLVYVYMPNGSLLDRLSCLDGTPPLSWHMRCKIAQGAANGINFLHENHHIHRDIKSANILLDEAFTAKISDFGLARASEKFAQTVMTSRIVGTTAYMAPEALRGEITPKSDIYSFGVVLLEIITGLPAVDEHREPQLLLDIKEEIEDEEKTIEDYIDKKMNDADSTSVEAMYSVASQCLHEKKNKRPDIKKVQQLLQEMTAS
Test: Degradation of IRAK4 in THP1 cells, Western blot
Assay type: cell-based
Design: Degradation of IRAK4 in THP1 by compound; host or cells: THP-1
Conditions: THP-1 cells, 24 hours of incubation; for DC50: IRAK4 protein by Western blot, read-out: DC50; for Dmax: maximum degradation rate, read-out: Dmax
Method in brief: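 Degradation rate derived from densitometry of IRAK4 bands versus DMSO-treated controls. Read-out: anti-IRAK4 immunoblot (10% gel, 40 μg total protein per lane, BCA-normalised) of lysates from THP1 cells incubated with compound for 24 h.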

DC50 [nM] | Dmax [%] | Structure (SMILES)
100 to 1000 | 40 to 60 | NC(=O)c1nn(-c2ccc(N3CCN(CC4CC5(CCN(c6ccc(N7CCC(=O)NC7=O)cc6)CC5)C4)CC3)cc2)cc1NC(=O)c1cccc(C(F)(F)F)n1 [Compound A392, N-(3-Carbamoyl-1-(4-(4-((7-(4-(2,4-dioxotetrahydropyrimidin-1(2H)-yl)phenyl)-7-azaspiro[3.5]nonan-2-yl)methyl)piperazin-1-yl)phenyl)-1H-pyrazol-4-yl)-6-(trifluoromethyl)picolinamide]
< 100 | > 60 | NC(=O)c1nn(-c2ccc(N3CCN(C(=O)C4CCN(c5ccc(OC6CCC(=O)NC6=O)cn5)CC4)CC3)cc2)cc1NC(=O)c1cccc(C(F)(F)F)n1 (stereo not shown) [Compound A415, N-(3-Carbamoyl-1-(4-(4-(1-(5-((2,6-dioxopiperidin-3-yl)oxy)pyridin-2-yl)piperidine-4-carbonyl)piperazin-1-yl)phenyl)-1H-pyrazol-4-yl)-6-(trifluoromethyl)picolinamide]
100 to 1000 | 40 to 60 | NC(=O)c1nn(-c2ccc(N3CCN(C(=O)C4CC5(CCN(c6ccc(N7CCC(=O)NC7=O)cc6)CC5)C4)CC3)cc2)cc1NC(=O)c1cccc(C(F)(F)F)n1 [Compound A394, N-(3-Carbamoyl-1-(4-(4-(7-(4-(2,4-dioxotetrahydropyrimidin-1(2H)-yl)phenyl)-7-azaspiro[3.5]nonane-2-carbonyl)piperazin-1-yl)phenyl)-1H-pyrazol-4-yl)-6-(trifluoromethyl)picolinamide]
< 100 | > 60 | Cn1c(=O)n(C2CCC(=O)NC2=O)c2cccc(NCCN3CCN(C(=O)c4ccc(-n5cc(NC(=O)c6cccc(-c7ccn[nH]7)n6)c(S(N)(=O)=O)n5)cc4)CC3)c21 (stereo not shown) [Compound A356, N-(1-(4-(4-(2-((1-(2,6-Dioxopiperidin-3-yl)-3-methyl-2-oxo-2,3-dihydro-1H-benzo[d]imidazol-4-yl)amino)ethyl)piperazine-1-carbonyl)phenyl)-3-sulfamoyl-1H-pyrazol-4-yl)-6-(1H-pyrazol-5-yl)picolinamide]
< 100 | > 60 | Cn1c(=O)n(C2CCC(=O)NC2=O)c2cccc(C#CCOC3CCN(Cc4ccc(-n5cc(NC(=O)c6cccc(-c7ccn[nH]7)n6)c(S(N)(=O)=O)n5)cc4)CC3)c21 (stereo not shown) [Compound A340, N-(1-(4-((4-((3-(1-(2,6-Dioxopiperidin-3-yl)-3-methyl-2-oxo-2,3-dihydro-1H-benzo[d]imidazol-4-yl)prop-2-yn-1-yl)oxy)piperidin-1-yl)methyl)phenyl)-3-sulfamoyl-1H-pyrazol-4-yl)-6-(1H-pyrazol-5-yl)picolinamide]
< 100 | > 60 | Cn1c(=O)n(C2CCC(=O)NC2=O)c2cccc(N3CCN(C(=O)C4CCN(Cc5ccc(-n6cc(NC(=O)c7cccc(-c8ccn[nH]8)n7)c(S(N)(=O)=O)n6)cc5)CC4)CC3)c21 (stereo not shown) [Compound A332, N-(1-(4-((4-(4-(1-(2,6-Dioxopiperidin-3-yl)-3-methyl-2-oxo-2,3-dihydro-1H-benzo[d]imidazol-4-yl)piperazine-1-carbonyl)piperidin-1-yl)methyl)phenyl)-3-sulfamoyl-1H-pyrazol-4-yl)-6-(1H-pyrazol-5-yl)picolinamide]

Structure (SMILES) | DC50 [nM] | Dmax [%]
Cn1c(=O)n(C2CCC(=O)NC2=O)c2ccc(N3CCC(CN4CCN(c5ccc(-n6cc(NC(=O)c7cccc(-c8ccn[nH]8)n7)c(S(N)(=O)=O)n6)cc5)CC4)CC3)cc21 (stereo not shown) [Compound A326, N-[3-(aminodioxyylidene-λ6-thio)-1-{4-[4-({1-[1-(2,6-dioxopiperidin-3-yl)-3-methyl-2-oxobenzo[d]imidazol-5-yl]piperidin-4-yl}methyl)piperazin-1-yl]phenyl}pyrazol-4-yl]-6-(2H-pyrazol-3-yl)pyridine-2-carboxamide] | < 100 | > 60
Cn1c(=O)n(C2CCC(=O)NC2=O)c2cccc(NCCN3CC4CN(C(=O)c5ccc(-n6cc(NC(=O)c7cccc(-c8ccn[nH]8)n7)c(S(N)(=O)=O)n6)cc5)CC4C3)c21 (stereo not shown) [Compound A339] | < 100 | > 60
